Test results reported in US20210378985A1, “METHOD AND COMPOUND FOR THE TREATMENT OF HEPATITIS C” (priority 2020, published 2021).

Columns and labels:
[1] = test system: HCV subgenomic replicon; conditions: at both mRNA and protein level; cited from earlier work
[2] = test system: core protein in Huh 7 cells; conditions: cited from earlier work
[3] = test system: HIV-1; test: Co-cultivation of HIV-1 infected cells with uninfected target cells; type: cell-based
From the text: Viral pathogenesis in co-cultivation of infected cells with uninfected target cells presents a complex system with several target sites (attachment, fusion, transcription, processing, packaging and budding).
In many documented antiretroviral studies, the co-culture system is conventionally used to isolate the virus as well as to study cell-to-cell transmission or to determine if a given compound blocks cell fusion.

[4] = test system: gamma interferon; test: Gamma interferon production stimulated by 90I; type: cell-based; conditions: versus positive control PMA-Ionomycin combination
[5] = test system: HIV-1; test: Cell-based time course study (mode of action); conditions: drug addition at various time points
From the text: The time course study may be an important tool for the determination of viral kinetics and drug mode of action. The dynamics of drug-virus interaction, competitive or non-competitive, kinetics provides a dose response curve from which a broad lead mechanism of action can be drawn. The dynamics of the interactions relate to the viral kinetic of infection and drug addition at various time points.

C[C@@H]1CC[C@@]2(OC1)O[C@H]1C[C@H]3[C@@H]4CC=C5C[C@@H](O)CC[C@]5(C)[C@H]4CC[C@]3(C)[C@H]1[C@@H]2C [Diosgenin]
replication of HCV subgenomic replicon [1]: effectively blocked the replication of the HCV subgenomic replicon

O=C1C[C@@H](c2ccc(O)cc2)Oc2cc(O)cc(O)c21 [Naringenin]
activity of core protein ([2]; Huh 7 cells): suppressed the activity of core protein
assembly of HCV particles [2]: effectively blocked the assembly of HCV particles

O=C(OCCOCCOC(=O)c1ccccc1)c1ccccc1 [Compound 90I, diethylene glycol dibenzoate]
syncytium formation [3]: drastic drop of syncytium formation
cell viability ([3]; exponential cell growth dynamics): greater than ninety percent
amount of gamma interferon produced [4]: equivalent to that of the positive control
mode of action (early/late) [5]: works both early and late
